Measured values from patent US20240059729A1, “MULTIFUNCTIONAL CYCLIC DINUCLEOTIDE AND USE THEREOF” (TYLIGAND BIOSCIENCE (SHANGHAI) LIMITED, priority 2020, published 2024).
Structures can show the parent of a compound that is named as a salt.

Test: Discovery and identification of metabolites in hepatocytes
Format: in vitro ADME, mouse, rat, dog, monkey, human
Details: 5 species of hepatocytes, 240 min; FIG. 4-B
Source text: The main metabolites of the compounds of the invention in 5 species (mouse, rat, dog, monkey, human) of hepatocytes were similarly identified according to standard methods of in vitro metabolic stability studies conventional in the art, for example (Kems, Edward H. and Di Li (2008). Drug-like Properties: Concepts, Structure Design and Methods: From ADME to Toxicity Optimization, San Diego: Academic Press; Di, Li et al, Optimization of a High Throughput Microsomal Stability Screening Assay for Profiling Drug Discovery Candidates, J Biomol Screen. 2003, 8(4), 453).
The hepatocytes used in the experiment: human hepatocytes (SHQY, Cat. #BQHPCH10, Lot. #HEP190006-TA05), dog hepatocytes (BioIVT, Cat. #M00205, Lot. #ZMB); monkey hepatocytes (XENOTECH, Cat. #PPCH2000, Lot. #2010022), rat hepatocytes (SHQY, Cat. #BQR1000⋅H15, Lot. #HEP134049), and mouse hepatocytes (BioIVT, Cat. #M005052, Lot. #MEO).
A HI hepatocyte maintenance medium (BIOIVT, Cat. #Z99009; Lot. #C02060C) was pre-warmed to 37° C. Cryopreserved hepatocyte tubes were removed from a liquid nitrogen tank and immediately placed in a shaking water bath at 37±1° C. for 2 minutes±15 seconds. […] The hepatocytes were counted and then the cell suspension was diluted in HI medium to the appropriate density (viable cell density=2×10^6 cells/mL). […]

With Nc1nc2c(ncn2[C@@H]2O[C@@H]3CO[P@@](=O)(S)OC4C(F)[C@H](n5cnc6c(N)nc(Cl)nc65)O[C@@H]4CO[P@@](=O)(S)OC2C3O)c(=O)[nH]1 (stereo partly drawn) [Example 10, (2′,3′)-cyclo-(Rp,Rp)-[2′-O-phosphorothioate-diester-guanosine]-[3′-O-phosphorothioate-diester-2-chloro-2′-deoxy-2′-fluoro-beta-adenosine] diammonium salt] the “Main metabolite in hepatocytes” value was “Clofarabine”.
